Experimental data reported in ChEMBL document CHEMBL2086247, “Protein-ligand crystal structures can guide the design of selective inhibitors of the FGFR tyrosine kinase” (J Med Chem, 2012).

Columns and labels:
[1] = molecular target: T1, Vascular endothelial growth factor receptor 2 (Homo sapiens, UniProt P35968); assay: Inhibition of recombinant N terminal GST-tagged human KDR (805 to 1356) expressed in baculovirus infected Sf9 cells after 90 mins by caliper mobility shift assay
[2] = molecular target: T2, Insulin-like growth factor 1 receptor (Homo sapiens, UniProt P08069); assay: Inhibition of recombinant N terminal His6-tagged human IGF1R (959 to end) expressed in baculovirus infected Sf21 cells after 80 mins by caliper mobility shift assay
[3] = molecular target: T1, Vascular endothelial growth factor receptor 2; assay: Inhibition of human KDR phosphorylation expressed in VEGF-stimulated HUVEC treated 90 mins before VEGF stimulation measured after 5 mins by ELISA; type: cell-based
[4] = molecular target: T3, Fibroblast growth factor receptor 1 (Homo sapiens, UniProt P11362)
T3 sequence (P11362 whole entry): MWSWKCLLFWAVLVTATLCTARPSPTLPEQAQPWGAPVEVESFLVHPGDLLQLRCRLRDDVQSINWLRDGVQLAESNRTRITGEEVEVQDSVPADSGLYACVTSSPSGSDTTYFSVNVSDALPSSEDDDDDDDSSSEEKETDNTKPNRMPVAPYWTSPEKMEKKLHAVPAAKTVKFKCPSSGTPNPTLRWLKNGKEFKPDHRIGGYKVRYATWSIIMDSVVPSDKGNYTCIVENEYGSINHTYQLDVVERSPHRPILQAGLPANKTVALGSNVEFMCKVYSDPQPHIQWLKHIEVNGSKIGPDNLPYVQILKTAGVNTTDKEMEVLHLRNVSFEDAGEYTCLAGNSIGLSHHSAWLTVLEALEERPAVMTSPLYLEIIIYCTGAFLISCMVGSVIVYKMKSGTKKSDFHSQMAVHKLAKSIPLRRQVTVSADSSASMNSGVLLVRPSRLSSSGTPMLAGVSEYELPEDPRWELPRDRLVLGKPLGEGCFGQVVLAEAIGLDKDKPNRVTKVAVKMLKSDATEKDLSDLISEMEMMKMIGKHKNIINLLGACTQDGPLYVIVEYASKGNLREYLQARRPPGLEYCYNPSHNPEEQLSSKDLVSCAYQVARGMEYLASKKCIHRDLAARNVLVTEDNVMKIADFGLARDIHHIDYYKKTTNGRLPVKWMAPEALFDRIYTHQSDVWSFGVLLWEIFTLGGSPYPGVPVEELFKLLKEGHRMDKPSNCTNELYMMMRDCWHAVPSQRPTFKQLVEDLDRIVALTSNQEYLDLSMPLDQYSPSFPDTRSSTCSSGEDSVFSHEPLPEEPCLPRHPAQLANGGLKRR
Description: Inhibition of human FGFR1 phosphorylation expressed in COS1 cells after 1 hr by immunoblotting

[5] = molecular target: T3, Fibroblast growth factor receptor 1; assay: biochemical
Description: Inhibition of recombinant N terminal GST-tagged human FGFR1 (456 to 765) expressed in baculovirus infected Sf21 cells after 40 mins by caliper mobility shift assay

[6] = molecular target: T2, Insulin-like growth factor 1 receptor; assay: Inhibition of human IGF1R phosphorylation expressed in IGF-1-stimulated knockout mouse R+ cells treated 30 mins before IGF-1 stimulation measured after 20 mins by immunofluorescence
[7] = molecular target: Dual specificity mitogen-activated protein kinase kinase 1 (Homo sapiens, UniProt Q02750); assay: Inhibition of MEK1 fused with GST by autoradiography
Chain of Dual specificity mitogen-activated protein kinase kinase 1 (Q02750 whole entry, the tested form may be a part): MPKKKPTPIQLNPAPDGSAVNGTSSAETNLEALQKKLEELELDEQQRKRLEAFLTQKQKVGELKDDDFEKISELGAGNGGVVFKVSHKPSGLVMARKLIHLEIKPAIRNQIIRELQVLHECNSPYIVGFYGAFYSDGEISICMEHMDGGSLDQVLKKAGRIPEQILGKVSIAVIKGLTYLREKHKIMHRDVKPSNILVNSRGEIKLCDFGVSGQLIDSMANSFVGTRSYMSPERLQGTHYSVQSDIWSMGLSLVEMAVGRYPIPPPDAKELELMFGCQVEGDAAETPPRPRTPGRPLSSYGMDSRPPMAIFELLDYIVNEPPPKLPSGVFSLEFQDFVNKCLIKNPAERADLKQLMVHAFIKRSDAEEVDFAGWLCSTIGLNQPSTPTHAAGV

T1 sequence (P35968 whole entry): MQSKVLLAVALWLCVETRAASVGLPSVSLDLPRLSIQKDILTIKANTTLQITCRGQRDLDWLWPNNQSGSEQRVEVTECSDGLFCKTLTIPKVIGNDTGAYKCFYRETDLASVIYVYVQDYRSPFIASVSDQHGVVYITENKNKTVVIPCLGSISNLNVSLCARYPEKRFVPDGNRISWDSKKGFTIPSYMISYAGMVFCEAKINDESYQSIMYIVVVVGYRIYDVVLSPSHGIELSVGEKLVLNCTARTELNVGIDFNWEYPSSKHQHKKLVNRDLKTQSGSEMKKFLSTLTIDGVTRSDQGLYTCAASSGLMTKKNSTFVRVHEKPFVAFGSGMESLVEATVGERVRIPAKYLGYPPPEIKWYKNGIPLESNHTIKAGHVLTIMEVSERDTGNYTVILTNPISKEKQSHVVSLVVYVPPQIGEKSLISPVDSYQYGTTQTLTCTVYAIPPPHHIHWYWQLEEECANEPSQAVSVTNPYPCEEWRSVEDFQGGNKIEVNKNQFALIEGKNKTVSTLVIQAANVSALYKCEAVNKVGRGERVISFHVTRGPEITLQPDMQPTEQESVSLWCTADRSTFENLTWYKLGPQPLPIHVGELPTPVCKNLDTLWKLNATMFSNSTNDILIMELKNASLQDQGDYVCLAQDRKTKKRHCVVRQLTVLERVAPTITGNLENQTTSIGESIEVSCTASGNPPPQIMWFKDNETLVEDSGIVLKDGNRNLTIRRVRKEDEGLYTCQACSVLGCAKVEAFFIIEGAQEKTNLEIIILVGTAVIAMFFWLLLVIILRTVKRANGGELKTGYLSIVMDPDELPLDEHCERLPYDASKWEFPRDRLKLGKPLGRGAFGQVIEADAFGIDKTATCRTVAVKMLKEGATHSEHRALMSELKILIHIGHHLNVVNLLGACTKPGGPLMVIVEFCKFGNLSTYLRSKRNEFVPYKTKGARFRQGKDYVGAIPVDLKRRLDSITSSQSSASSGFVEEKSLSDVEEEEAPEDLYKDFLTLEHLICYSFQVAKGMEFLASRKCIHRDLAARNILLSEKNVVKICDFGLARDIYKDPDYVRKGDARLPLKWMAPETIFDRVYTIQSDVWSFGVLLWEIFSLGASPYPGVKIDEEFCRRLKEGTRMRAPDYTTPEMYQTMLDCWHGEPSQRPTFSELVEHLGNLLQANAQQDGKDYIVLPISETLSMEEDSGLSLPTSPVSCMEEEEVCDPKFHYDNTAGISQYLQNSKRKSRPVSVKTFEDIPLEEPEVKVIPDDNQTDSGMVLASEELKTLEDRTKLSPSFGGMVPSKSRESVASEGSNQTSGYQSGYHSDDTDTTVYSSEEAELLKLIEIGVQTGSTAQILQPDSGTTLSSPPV

Row | IC50 [1] [nM] | IC50 [2] [nM] | IC50 [3] [nM] | IC50 [4] [nM] | IC50 [5] [nM] | IC50 [6] [nM] | IC50 [7] [nM] | SMILES
1 | 501 | 50100 | – | – | – | – | – | Cc1cc(Nc2nc(NCc3ncccc3C)ncc2Br)n[nH]1
2 | 3980 | 10000 | > 10000 | 158 | 31.6 | 3160 | – | Cc1cc(Nc2nc(NCc3cc(C(C)(C)C)no3)ncc2Br)[nH]n1
3 | 501 | 7940 | – | – | – | – | – | Cc1cc(CNc2ncc(Cl)c(Nc3cc(C)[nH]n3)n2)on1
4 | 1260 | 20000 | > 10000 | 794 | 63.1 | > 20000 | – | COCCCc1cc(Nc2nc(NCc3cc(C)no3)ncc2Br)[nH]n1
5 | 1000 | 3980 | 794 | – | – | 6310 | – | C=CCNc1ncc(Br)c(Nc2cc(C)[nH]n2)n1
6 | 501 | 6310 | – | – | 126 | – | – | Cc1cc(Nc2nc(NCCCc3c[nH]nc3C)ncc2Br)n[nH]1
7 | 79.4 | 6310 | 1580 | < 15.8 | 2 | 5010 | – | COc1cc(CCc2cc(Nc3ccnc(NCc4cc(C)no4)n3)n[nH]2)cc(OC)c1
8 | 1260 | 7940 | – | – | 100 | – | – | Cc1cc(Nc2ccnc(NCc3cc(C(N)=O)no3)n2)[nH]n1
9 | 126 | 1580 | – | – | – | – | – | CCCc1cc(Nc2nc(NCc3cccnc3)ncc2Br)n[nH]1
10 | 3160 | 100 | – | – | – | – | – | CCc1cc(Nc2nc(NCc3cc(-c4ccccn4)no3)ncc2Br)n[nH]1
11 | 631 | 7940 | 6310 | 158 | 63.1 | 6310 | – | Cc1cc(Nc2nc(NCc3cc(C)no3)ncc2Br)[nH]n1
12 | 501 | 15800 | – | – | 398 | – | – | Cc1cc(CCNc2ncc(Br)c(Nc3cc(C)[nH]n3)n2)on1
13 | – | – | – | – | – | – | > 50000 | CCN(CC)CCCCNc1ncc2cc(-c3cc(OC)cc(OC)c3)c(NC(=O)NC(C)(C)C)nc2n1 [PD-173074]
14 | 1580 | 12600 | – | – | 200 | – | – | Cc1cc(Nc2nc(NCc3ccccn3)ncc2Br)n[nH]1
15 | 15800 | 10000 | – | – | – | – | – | Cc1cc(Nc2nc(NCc3cc(C(=O)N4CCCC4)no3)ncc2Br)n[nH]1
16 | 398 | 398 | – | – | – | – | – | CC(C)c1cc(Nc2nc(NCc3cccnc3)ncc2Br)n[nH]1
17 | 158 | 398 | 6310 | 100 | 10 | 501 | – | CCCc1cc(Nc2nc(NCc3cc(C)no3)ncc2Br)n[nH]1
18 | 1580 | 12600 | – | – | – | – | – | COCCCc1cc(Nc2ccnc(NCc3cc(C4CC4)no3)n2)n[nH]1
19 | 200 | 3980 | – | – | 200 | – | – | Cc1cc(Nc2nc(NCCc3ccco3)ncc2Br)n[nH]1
20 | 20000 | 39800 | – | – | – | – | – | Cc1cc(CNc2nccc(Nc3cc(CO)[nH]n3)n2)on1
21 | 126 | 12600 | – | – | 2 | – | – | COc1cc(CCc2cc(Nc3ccnc(NCc4cc(C)on4)n3)n[nH]2)cc(OC)c1
22 | 794 | 10000 | – | – | 25.1 | – | – | Cc1cc(Nc2ccnc(NCc3cc(C4CC4)no3)n2)n[nH]1
23 | 1000 | 12600 | – | – | 100 | – | – | Cc1cnc(CNc2ncc(Br)c(Nc3cc(C)[nH]n3)n2)cn1
24 | 398 | 79400 | – | – | 5.01 | – | – | COc1cc(CCc2cc(Nc3ccnc(NCc4ccccn4)n3)[nH]n2)cc(OC)c1
25 | 1260 | 100000 | – | – | – | – | – | COCCCc1cc(Nc2ccnc(NCc3cc(C(N)=O)no3)n2)[nH]n1
26 | 25.1 | 6310 | 1580 | 63.1 | 2.51 | 10000 | – | Cc1cc(CNc2ncc(Br)c(Nc3cc(CCc4ccccc4)[nH]n3)n2)on1
27 | 501 | 3160 | – | – | 39.8 | – | – | CCc1cc(Nc2nc(NCc3ccccn3)ncc2Br)n[nH]1
28 | 631 | 6310 | > 10000 | 2510 | 501 | 3980 | – | Cc1cc(Nc2nc(NCCc3cccnc3)ncc2Br)[nH]n1
29 | 1000 | 12600 | – | – | – | – | – | Cc1cc(CNc2nccc(Nc3cc(C)[nH]n3)n2)on1

Row | SMILES | IC50 [1] [nM] | IC50 [2] [nM] | IC50 [3] [nM] | IC50 [4] [nM] | IC50 [5] [nM] | IC50 [6] [nM] | IC50 [7] [nM]
30 | COCCCc1cc(Nc2ccnc(NCc3cc(C)no3)n2)n[nH]1 | 2510 | – | – | – | – | – | –
31 | Cc1cc(CNc2nccc(Nc3cc(CCc4ccccc4)[nH]n3)n2)on1 | 126 | – | – | – | – | – | –
